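How tested: cells in 96-well plates exposed to compound for 48 hours at five concentrations. Here, GI50 denotes the concentration required for 50% inhibition of growth.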 Activity calls are given as the source filed them. Rule as the data show it: active = GI50 up to about 1.1 µM and inactive = higher. Starred links: 1 amine or outer side, 2 acyl side, 3 side chain; linkers in the order of their positions; H or OH if unused. Non-standard residues stand in square brackets, D forms with d. Residues, ends and D or L forms follow the SMILES beside them. ξ: configuration not given here. Ile(3ξ) = CCC(C)[C@H](N)C(=O)O; X35 = C=CCC(O[*:1])C(=O)[*:2]; NMeV = CN[C@H](C(=O)O)C(C)C; NMeA = CN[C@@H](C)C(=O)O; βAla = NCCC(=O)O
How the values were obtained:
Assay in all cases: inhibition of tumour cell growth, NCI panel, 48 h
ACHN = system: ACHN
BT-549 = system: BT-549
CAKI-1 = system: CAKI-1
HCC 2998 = system: HCC 2998
HCT-116 = system: HCT-116
HCT-15 = system: HCT-15
Hs-578T = system: Hs-578T
K562 = system: K562
KM12 = system: KM12
MDA-MB-231 = system: MDA-MB-231
MOLT-4 = system: MOLT-4
NCI-H460 = system: NCI-H460
OVCAR-3 = system: OVCAR-3
RXF 393 = system: RXF 393
SK-MEL-5 = system: SK-MEL-5
SN12C = system: SN12C
SW-620 = system: SW-620
TK-10 = system: TK-10
UACC-62 = system: UACC-62
NCI/ADR-RES = system: NCI/ADR-RES

SMILES | GI50 (ACHN) | GI50 (BT-549) | GI50 (CAKI-1) | GI50 (HCC 2998) | GI50 (HCT-116) | GI50 (HCT-15) [µM] | GI50 (Hs-578T) | GI50 (K562) | GI50 (KM12) | GI50 (MDA-MB-231) | GI50 (MOLT-4) | GI50 (NCI-H460) | GI50 (OVCAR-3) | GI50 (RXF 393) | GI50 (SK-MEL-5) | GI50 (SN12C) | GI50 (SW-620) | GI50 (TK-10) | GI50 (UACC-62) | GI50 (NCI/ADR-RES)
Cn1nc(-c2ccccc2)c2c(-c3ccccc3)c3cc(Cl)ccc3nc21 | > 100 µM (inactive) | > 100 µM (inactive) | > 100 µM (inactive) | > 100 µM (inactive) | 41.3 µM (inactive) | 12.7 | > 76.4 µM (inactive) | > 100 µM (inactive) | > 100 µM (inactive) | > 100 µM (inactive) | 15.8 µM (inactive) | 75.7 µM (inactive) | > 100 µM (inactive) | > 100 µM (inactive) | > 100 µM (inactive) | > 100 µM (inactive) | > 100 µM (inactive) | > 100 µM (inactive) | > 100 µM (inactive) | 
CC(C)(C)N(Cc1ccc2c(c1)OCO2)C(=O)/C=C\Sc1ccccc1 | > 100 µM (inactive) | 42.6 µM (inactive) | > 100 µM (inactive) | 97.1 µM (inactive) | 23.9 µM (inactive) | 63.8 |  | 42.9 µM (inactive) | 81.8 µM (inactive) | > 100 µM (inactive) | 21.1 µM (inactive) |  | > 100 µM (inactive) |  | 53.2 µM (inactive) | > 100 µM (inactive) | 99.8 µM (inactive) | > 100 µM (inactive) | > 100 µM (inactive) | 89.5 µM (inactive)
Cc1ccc(N(C)S(=O)(=O)c2ccccc2[N+](=O)[O-])cc1 | 58.9 µM (inactive) | 23.3 µM (inactive) | 48.2 µM (inactive) |  | 39.1 µM (inactive) | 46.7 |  |  | 29.4 µM (inactive) | 41 µM (inactive) |  | 32.5 µM (inactive) | 44 µM (inactive) | 34.9 µM (inactive) |  | 83 µM (inactive) | 58.3 µM (inactive) | > 100 µM (inactive) |  | 37.5 µM (inactive)
O=C(O)c1ccccc1C(=O)NCC1S(=O)(=O)OCCOS1(=O)=O | > 100 µM (inactive) |  | > 100 µM (inactive) | > 100 µM (inactive) | > 100 µM (inactive) | > 100 | > 100 µM (inactive) | > 100 µM (inactive) |  | > 100 µM (inactive) | > 100 µM (inactive) | > 100 µM (inactive) | > 100 µM (inactive) | > 100 µM (inactive) | > 100 µM (inactive) | > 100 µM (inactive) | > 100 µM (inactive) | > 100 µM (inactive) | > 100 µM (inactive) | > 100 µM (inactive)
COc1ccc(O[C@H](COCc2ccccc2)C[C@@H]2COC(C)(C)O2)cc1 | > 100 µM (inactive) | > 100 µM (inactive) | > 100 µM (inactive) | > 100 µM (inactive) | > 100 µM (inactive) | > 100 |  | > 100 µM (inactive) | > 100 µM (inactive) | > 100 µM (inactive) | > 100 µM (inactive) | > 100 µM (inactive) | > 100 µM (inactive) | > 100 µM (inactive) | > 100 µM (inactive) | > 100 µM (inactive) | > 100 µM (inactive) | > 100 µM (inactive) | > 100 µM (inactive) | > 100 µM (inactive)
CCOc1ccnc2c(OC)c(C)c3nc4ccccc4nc3c12 | > 100 µM (inactive) |  | > 100 µM (inactive) | > 100 µM (inactive) | > 100 µM (inactive) | 12.8 | > 100 µM (inactive) | 98.6 µM (inactive) | 86.5 µM (inactive) | > 100 µM (inactive) | 82.6 µM (inactive) | > 100 µM (inactive) | > 100 µM (inactive) | 8.39 µM (inactive) | > 100 µM (inactive) | > 100 µM (inactive) | > 100 µM (inactive) | > 100 µM (inactive) |  | 71.1 µM (inactive)
O=C(Nc1ccccc1)O/N=C(/CBr)c1ccccc1 | 17.1 µM (inactive) |  | 14.8 µM (inactive) | 18.5 µM (inactive) | 4.3 µM (inactive) | 4.04 | 26.2 µM (inactive) | 4.12 µM (inactive) | 17.9 µM (inactive) | 12.2 µM (inactive) | 3.18 µM (inactive) | 19 µM (inactive) | 17.7 µM (inactive) | 31.9 µM (inactive) | 11.9 µM (inactive) | 8.22 µM (inactive) | 5.35 µM (inactive) | 18.1 µM (inactive) | 12.3 µM (inactive) | 17.9 µM (inactive)
n1onc2c1NC1Nc3nonc3NC1N2 (centres undefined) | > 100 µM (inactive) |  | > 100 µM (inactive) | > 100 µM (inactive) | > 100 µM (inactive) | > 100 | > 100 µM (inactive) | > 100 µM (inactive) | > 100 µM (inactive) |  | > 100 µM (inactive) | > 100 µM (inactive) | > 100 µM (inactive) |  | > 100 µM (inactive) | > 100 µM (inactive) | > 100 µM (inactive) | > 100 µM (inactive) |  | > 100 µM (inactive)
O=C(/N=N/c1cccc(Cl)c1)NNc1cccc(Cl)c1 | 9.25 µM (inactive) | > 10 µM (inactive) | 18.1 µM (inactive) | 14.7 µM (inactive) | 8.22 µM (inactive) | 17.6 |  | 10.6 µM (inactive) |  | 23.2 µM (inactive) | 10.9 µM (inactive) | 15.5 µM (inactive) | 15 µM (inactive) |  | 17.9 µM (inactive) | 11.7 µM (inactive) | 16.2 µM (inactive) | 25.1 µM (inactive) | 9.25 µM (inactive) | 
CC(=O)O/C=C1/C[C@H]2[C@@H]3CCC4CC(C(C)=O)CC[C@]4(C)[C@H]3CC[C@]2(C)C1=O (some centres undefined) | > 100 µM (inactive) | > 100 µM (inactive) | > 100 µM (inactive) | > 100 µM (inactive) | 29.6 µM (inactive) | 14.8 |  | 36.4 µM (inactive) | 33.7 µM (inactive) | > 100 µM (inactive) | 39.1 µM (inactive) | > 100 µM (inactive) | 33.2 µM (inactive) | > 100 µM (inactive) | 47.2 µM (inactive) | > 100 µM (inactive) | > 100 µM (inactive) | > 100 µM (inactive) | > 100 µM (inactive) | 
COc1ccc2c(O)c(Oc3ccc(Cl)cc3)c(=O)oc2c1 | 93.3 µM (inactive) | 36.9 µM (inactive) | 54.3 µM (inactive) | 75.7 µM (inactive) | > 100 µM (inactive) | 41.4 | > 100 µM (inactive) | > 100 µM (inactive) | > 100 µM (inactive) | > 100 µM (inactive) | > 100 µM (inactive) | > 100 µM (inactive) | 83.9 µM (inactive) | 35.3 µM (inactive) | > 100 µM (inactive) | > 100 µM (inactive) | > 100 µM (inactive) | 78.3 µM (inactive) |  | 
NC1=Nc2ncccc2C(=O)NN1 | > 10 µM (inactive) | > 10 µM (inactive) |  | 8.89 µM (inactive) | > 10 µM (inactive) | > 10 | 0.382 µM (active) | > 10 µM (inactive) | > 10 µM (inactive) | > 10 µM (inactive) | > 10 µM (inactive) | > 10 µM (inactive) | > 10 µM (inactive) | > 10 µM (inactive) | > 10 µM (inactive) | > 10 µM (inactive) | > 10 µM (inactive) | > 10 µM (inactive) | > 10 µM (inactive) | 
C=C1CCCCCCCCCCC12SCCC2CCCCSC (centres undefined) | 20.3 µM (inactive) |  |  | 21.4 µM (inactive) | 17.8 µM (inactive) | 26 | 39.4 µM (inactive) | 22.9 µM (inactive) |  | 19.9 µM (inactive) | 21.3 µM (inactive) | 34.5 µM (inactive) | 16.7 µM (inactive) | 29.2 µM (inactive) | 17.3 µM (inactive) | 24.3 µM (inactive) | 20.3 µM (inactive) |  | 27.1 µM (inactive) | 20.8 µM (inactive)
O=C1C(Cl)=C(Cl)C(=O)N1c1ccc(F)cc1 [FLUOROIMIDE] | 18.2 µM (inactive) | 16.5 µM (inactive) | 13.7 µM (inactive) | 19.6 µM (inactive) | 26 µM (inactive) | 16.2 | 28.1 µM (inactive) | 5.11 µM (inactive) | 20.8 µM (inactive) | 17.1 µM (inactive) | 6.22 µM (inactive) | > 83.6 µM (inactive) | 17.5 µM (inactive) | 22.5 µM (inactive) | 38.3 µM (inactive) | 19.1 µM (inactive) | 16.9 µM (inactive) | 18.7 µM (inactive) | 14.7 µM (inactive) | 
CC(C)(C)OC(=O)N/N=C(/N)c1ccccc1 | > 100 µM (inactive) | > 100 µM (inactive) | > 100 µM (inactive) | > 100 µM (inactive) | > 100 µM (inactive) | > 100 |  | > 100 µM (inactive) | > 100 µM (inactive) | > 100 µM (inactive) | > 100 µM (inactive) | > 100 µM (inactive) | > 100 µM (inactive) | > 100 µM (inactive) | > 100 µM (inactive) | > 100 µM (inactive) |  | > 100 µM (inactive) | > 100 µM (inactive) | > 100 µM (inactive)
C=CCC1OC(=O)CCNC(=O)[C@H](C)N(C)C(=O)[C@H](C(C)C)N(C)C(=O)[C@H](C(C)CC)NC(=O)[C@@H]2CCCN2C1=O (some centres undefined) (cyclo([Ile(3ξ)][NMeV][NMeA][βAla][X35]P)) | 27.9 µM (inactive) |  | 8.93 µM (inactive) | 5.31 µM (inactive) | 3.94 µM (inactive) | 23 |  | 5 µM (inactive) | 8.43 µM (inactive) |  | 3.57 µM (inactive) | 4.94 µM (inactive) | 13.3 µM (inactive) | > 100 µM (inactive) | 2.97 µM (inactive) | 11.5 µM (inactive) | 5.07 µM (inactive) | > 38.3 µM (inactive) | 4.08 µM (inactive) | 
